Test results taken from US8455475B2 (Gruenenthal GmbH, priority 2009, dated 2013).

Experiments:
[1] = target: T1, human B1R (bradykinin receptor 1) (Homo sapiens, UniProt P46663); assay: FLIPR Ca2+ assay (Fluo-4) on CHO K1 cells stably transfected with the human B1R gene (hB1R cells): % inhibition at 10 μM / IC50, agonist Lys-Des-Arg9-bradykinin; format: cell-based; details: CHO-K1, human B1R
T1 construct: expressed in transfected cells; host or cells: CHO K1 cells
T1 sequence (P46663 1-353): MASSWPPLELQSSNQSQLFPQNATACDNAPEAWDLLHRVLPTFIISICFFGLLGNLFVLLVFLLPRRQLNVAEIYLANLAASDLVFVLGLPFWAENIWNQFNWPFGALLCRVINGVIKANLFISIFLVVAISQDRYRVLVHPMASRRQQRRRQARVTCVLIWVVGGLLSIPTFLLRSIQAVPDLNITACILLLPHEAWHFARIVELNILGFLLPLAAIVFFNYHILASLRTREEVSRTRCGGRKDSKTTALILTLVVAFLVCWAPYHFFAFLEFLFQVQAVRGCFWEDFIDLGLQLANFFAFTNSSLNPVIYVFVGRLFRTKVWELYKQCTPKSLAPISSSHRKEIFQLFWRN
Outline: (§1)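 Stably transfected CHO K1 cells loaded with Fluo-4 and read on FLIPR (λex 488, λem 540 nm; peak fluorescence). Test substance (10 μM) added first, then after 10–20 min the agonist at EC80; % inhibition versus maximum achievable inhibition. IC50 from several concentrations, n=2–3, N≥2.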

[2] = target: T2, rat B1R (bradykinin receptor 1) (Rattus norvegicus, UniProt P97583); assay: FLIPR Ca2+ assay (Fluo-4) on CHO K1 cells stably transfected with the B1R gene of the rat (rB1R cells): % inhibition at 10 μM / IC50, agonist Des-Arg9-bradykinin; format: cell-based; details: CHO-K1, rat B1R
T2 construct: expressed in transfected cells; host or cells: CHO K1 cells
T2 sequence (P97583 1-337): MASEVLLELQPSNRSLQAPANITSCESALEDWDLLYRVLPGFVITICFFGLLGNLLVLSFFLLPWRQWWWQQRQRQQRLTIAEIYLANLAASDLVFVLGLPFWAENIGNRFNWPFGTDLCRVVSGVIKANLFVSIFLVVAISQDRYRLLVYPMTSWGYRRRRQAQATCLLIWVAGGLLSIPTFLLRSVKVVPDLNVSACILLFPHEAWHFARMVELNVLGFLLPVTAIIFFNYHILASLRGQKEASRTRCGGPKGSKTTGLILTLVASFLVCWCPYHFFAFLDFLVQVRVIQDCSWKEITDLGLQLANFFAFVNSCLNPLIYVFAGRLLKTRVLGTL
Outline: as §1

Structure (SMILES)	inhibition at 10 µM [1] [%]	inhibition at 10 µM [2] [%]
O=C(NC1CCc2ccc(C(=O)N3CCC4(CC3)CCN(c3ccncc3)C4)cc21)c1ccccc1Cl (stereo not drawn) [Ind_CC-101, 2-chloro-N-[6-(2-pyridin-4-yl-2,8-diazaspiro[4.5]decane-8-carbonyl)-2,3-dihydro-1H-inden-1-yl]-benzamide]	100	102
O=C(NC1CCc2ccc(C(=O)N3CCC4(CC3)CCN(c3cccnc3)CC4)cc21)c1sccc1Cl (stereo not drawn) [Ind_CC-102, 3-chloro-N-[6-(9-pyridin-3-yl-3,9-diazaspiro[5.5]undecane-3-carbonyl)-2,3-dihydro-1H-inden-1-yl]-thiophene-2-carboxylic acid amide]	87	100
O=C(NC1CCc2ccc(C(=O)N3CCC4(CC3)CCN(c3ccc(F)cc3)CC4)cc21)c1sccc1Cl (stereo not drawn) [Ind_CC-103, 3-chloro-N-[6-[9-(4-fluorophenyl)-3,9-diazaspiro[5.5]undecane-3-carbonyl]-2,3-dihydro-1H-inden-1-yl]-thiophene-2-carboxylic acid amide]	93	62
O=C(NC1CCc2ccc(C(=O)N3CCC4(CCN(Cc5ccncc5)CC4)CC3)cc21)c1sccc1Cl (stereo not drawn) [Ind_CC-104, 3-chloro-N-[6-[9-(pyridin-4-yl-methyl)-3,9-diazaspiro[5.5]undecane-3-carbonyl]-2,3-dihydro-1H-inden-1-yl]-thiophene-2-carboxylic acid amide]	33	102
CN(C)C1(c2ccc(F)cc2)CCC2(CCN(C(=O)c3ccc4c(c3)C(NC(=O)c3sccc3Cl)CC4)CC2)CC1 (stereo not drawn) [Ind_CC-105, 3-chloro-N-[6-[9-dimethylamino-9-(4-fluorophenyl)-3-azaspiro[5.5]undecane-3-carbonyl]-2,3-dihydro-1H-inden-1-yl]-thiophene-2-carboxylic acid amide]	61	86
CN(C(=O)c1ccccc1Cl)C1CCc2ccc(C(=O)N3CCC4(CC3)CCN(c3ccncc3)CC4)cc21 (stereo not drawn) [Ind_CC-106, 2-chloro-N-methyl-N-[6-(9-pyridin-4-yl-3,9-diazaspiro[5.5]undecane-3-carbonyl)-2,3-dihydro-1H-inden-1-yl]-benzamide]	100	100
CN(C(=O)c1ccccc1Cl)C1CCc2ccc(C(=O)N3CCC4(CC3)CCN(c3cccnc3)CC4)cc21 (stereo not drawn) [Ind_CC-107, 2-chloro-N-methyl-N-[6-(9-pyridin-3-yl-3,9-diazaspiro[5.5]undecane-3-carbonyl)-2,3-dihydro-1H-inden-1-yl]-benzamide]	78	100
CN(C(=O)c1ccccc1Cl)C1CCc2ccc(C(=O)N3CCC4(CC3)CCN(c3ccc(F)cc3)CC4)cc21 (stereo not drawn) [Ind_CC-108, 2-chloro-N-[6-[9-(4-fluorophenyl)-3,9-diazaspiro[5.5]undecane-3-carbonyl]-2,3-dihydro-1H-inden-1-yl]-N-methyl-benzamide]	23	51
CN(C(=O)c1ccccc1Cl)C1CCc2ccc(C(=O)N3CCC4(CCN(Cc5ccncc5)CC4)CC3)cc21 (stereo not drawn) [Ind_CC-109, 2-chloro-N-methyl-N-[6-[9-(pyridin-4-yl-methyl)-3,9-diazaspiro[5.5]undecane-3-carbonyl]-2,3-dihydro-1H-inden-1-yl]-benzamide]	33	29
CN(C(=O)c1ccccc1Cl)C1CCc2ccc(C(=O)N3CCC4(CC3)CCC(c3ccc(F)cc3)(N(C)C)CC4)cc21 (stereo not drawn) [Ind_CC-110, 2-chloro-N-[6-[9-dimethylamino-9-(4-fluorophenyl)-3-azaspiro[5.5]undecane-3-carbonyl]-2,3-dihydro-1H-inden-1-yl]-N-methyl-benzamide]	52	79
CN(C(=O)c1ccccc1Cl)C1CCc2ccc(C(=O)N3CCC4(CCN(c5ccncc5)CC4)C3)cc21 (stereo not drawn) [Ind_CC-111, 2-chloro-N-methyl-N-[6-(8-pyridin-4-yl-2,8-diazaspiro[4.5]decane-2-carbonyl)-2,3-dihydro-1H-inden-1-yl]-benzamide]	100	101
CN(C)C1(c2ccc(F)cc2)CCC2(CCN(C(=O)c3ccc4c(c3)C(N(C(=O)c3ccccc3Cl)C3CC3)CC4)CC2)CC1 (stereo not drawn) [Ind_CC-117, 2-chloro-N-cyclopropyl-N-[6-[9-dimethylamino-9-(4-fluorophenyl)-3-azaspiro[5.5]undecane-3-carbonyl]-2,3-dihydro-1H-inden-1-yl]-benzamide]	56	77

Results, then the compound that gave them:

inhibition at 10 µM [1] [%]	inhibition at 10 µM [2] [%]	Structure (SMILES)
100	104	CN(C(=O)c1ccccc1Cl)C1CCc2ccc(C(=O)N3CCC4(CC3)CCN(c3ccncc3)C4)cc21 (stereo not drawn) [Ind_CC-112, 2-chloro-N-methyl-N-[6-(2-pyridin-4-yl-2,8-diazaspiro[4.5]decane-8-carbonyl)-2,3-dihydro-1H-inden-1-yl]-benzamide]
98	100	O=C(c1ccc2c(c1)C(N(C(=O)c1ccccc1Cl)C1CC1)CC2)N1CCC2(CC1)CCN(c1ccncc1)CC2 (stereo not drawn) [Ind_CC-113, 2-chloro-N-cyclopropyl-N-[6-(9-pyridin-4-yl-3,9-diazaspiro[5.5]undecane-3-carbonyl)-2,3-dihydro-1H-inden-1-yl]-benzamide]
99	101	O=C(c1ccc2c(c1)C(N(C(=O)c1ccccc1Cl)C1CC1)CC2)N1CCC2(CC1)CCN(c1cccnc1)CC2 (stereo not drawn) [Ind_CC-114, 2-chloro-N-cyclopropyl-N-[6-(9-pyridin-3-yl-3,9-diazaspiro[5.5]undecane-3-carbonyl)-2,3-dihydro-1H-inden-1-yl]-benzamide]
22	64	O=C(c1ccc2c(c1)C(N(C(=O)c1ccccc1Cl)C1CC1)CC2)N1CCC2(CC1)CCN(c1ccc(F)cc1)CC2 (stereo not drawn) [Ind_CC-115, 2-chloro-N-cyclopropyl-N-[6-[9-(4-fluorophenyl)-3,9-diazaspiro[5.5]undecane-3-carbonyl]-2,3-dihydro-1H-inden-1-yl]-benzamide]
68	77	O=C(c1ccc2c(c1)C(N(C(=O)c1ccccc1Cl)C1CC1)CC2)N1CCC2(CCN(Cc3ccncc3)CC2)CC1 (stereo not drawn) [Ind_CC-116, 2-chloro-N-cyclopropyl-N-[6-[9-(pyridin-4-yl-methyl)-3,9-diazaspiro[5.5]undecane-3-carbonyl]-2,3-dihydro-1H-inden-1-yl]-benzamide]
100	103	O=C(c1ccc2c(c1)C(N(C(=O)c1ccccc1Cl)C1CC1)CC2)N1CCC2(CCN(c3ccncc3)CC2)C1 (stereo not drawn) [Ind_CC-118, 2-chloro-N-cyclopropyl-N-[6-(8-pyridin-4-yl-2,8-diazaspiro[4.5]decane-2-carbonyl)-2,3-dihydro-1H-inden-1-yl]-benzamide]
99	104	O=C(c1ccc2c(c1)C(N(C(=O)c1ccccc1Cl)C1CC1)CC2)N1CCC2(CC1)CCN(c1ccncc1)C2 (stereo not drawn) [Ind_CC-119, 2-chloro-N-cyclopropyl-N-[6-(2-pyridin-4-yl-2,8-diazaspiro[4.5]decane-8-carbonyl)-2,3-dihydro-1H-inden-1-yl]-benzamide]
56	99	O=C(NC1CCCCc2ccc(C(=O)N3CCC4(CC3)CCN(c3ccncc3)CC4)cc21)c1ccccc1Cl (stereo not drawn) [Ind_CC-120, 2-chloro-N-[3-(9-pyridin-4-yl-3,9-diazaspiro[5.5]undecane-3-carbonyl)-6,7,8,9-tetrahydro-5H-benzocyclohepten-5-yl]-benzamide]
46	103	O=C(NC1CCCCc2ccc(C(=O)N3CCC4(CC3)CCN(c3cccnc3)CC4)cc21)c1ccccc1Cl (stereo not drawn) [Ind_CC-121, 2-chloro-N-[3-(9-pyridin-3-yl-3,9-diazaspiro[5.5]undecane-3-carbonyl)-6,7,8,9-tetrahydro-5H-benzocyclohepten-5-yl]-benzamide]
